Measured values: US20260306459A1, “INHIBITORS OF NSUN1- AND NSUN2-MEDIATED ACTIVE STRUCTURES” (THE UNIVERSITY OF CHICAGO, priority 2023, published 2026)
“Also recorded” adds a separate entry of the source.

Legend:
[1] = tested on: eRNAPII (CTD-S2P)-NSUN1 interaction; details: Cheng 2018; cited from earlier work
[2] = tested on: eRNAPII (CTD-S2P)-NSUN3 interaction; details: Cheng 2018; cited from earlier work
[3] = tested on: eRNAPII (CTD-S2P)-DNMT2 interaction; details: Cheng 2018; cited from earlier work
SCAR cells = details: low concentrations of 5-AZA, NSUN1 siRNA; Cheng 2018; cited from earlier work
[4] = tested on: eRNAPII (CTD-S2P)-CTD-S5P interaction; details: Cheng 2018; cited from earlier work
[5] = tested on: BRD4-eRNAPII (CTD-S2P) interaction; details: azacitidine-resistant M2AR cells; Cheng 2018; cited from earlier work
BRD4-NSUN1 interaction = details: azacitidine-resistant M2AR cells; Cheng 2018; cited from earlier work
SC cells = experiment: MTT growth inhibition in venetoclax-resistant monocytic leukemia cell line SC; type: cell-based, human
From the text: (§1) FIGS. 8A-8B display a schematic of an 5-ethynyl uridine click chemistry (EC)-coupled flow cytometry (EC-FCM) assay (FIG. 8A), while FIG. 8B depicts the results of an EC-FCM assay showing distinct drug-specific signatures/patterns of nascent RNA synthesis inhibition in the venetoclax sensitive leukemia cell line (K1). The MTT assay measures cell viability and proliferation as well as cytotoxicity of compounds by assessing cellular metabolic activity. The associated measurement can be described as cell viability, cell killing, and/or growth inhibition.
(§2) FIGS. 11A-11D display scatter plot representations of screening results for AI-designed NSUN1-targeting compound libraries in a venetcoclax-resistant human myeloid leukemia cell line (SC), lung cancer cell line (H82), and venetoclax resistant human […], and a schematic representation of categorization of the results. A human myeloid leukemia cell Line (SC), a lung cancer cell line (H82 or K562) were both incubated at drug concentration 10 μM/μL overnight. MTT assays were performed after 24 hours, and changes were calculated as the percentage of mean absorbance (n=3) versus mean absorbance of drug-free control (n=3). Negative outliers indicated in red ovals. FIG. 11A depicts the results of an NSUN1-targeting drug library, 74 drugs, comparing growth/inhibition in H-82 (Y axis) and SC (X axis) cell lines. FIG. 11B depicts the results of an NSUN2-targeting drug library, 102 drugs, comparing growth/inhibition in H-82 (Y axis) and SC (X axis) cell lines. FIG. 11C depicts the results of an NSUN1-targeting drug library, 74 drugs, comparing growth/inhibition in K562 (Y axis) and SC (X axis) cell lines. FIG. 11D is a schematic representation showing categorization of the results from screens performed as described in FIG. 11, and validation experiments as described in FIG. 12.
(§3) FIGS. 12A-12J display bar graphs displaying the results of validation experiments for small molecule inhibitors of NSUN1/2-ACS interactions as identified herein. Drug validation of select SC, H82, and/or K562 inhibiting compounds in mouse acute myeloid leukemia cell Line (C1498), SC cells, H82 cells, and/or K562 cells. NSUN1-17 and/or venetoclax acted as controls. Inhibition of cell vitality was identified as dose-dependent for certain small molecules, not merely cytotoxic. In brief, stock with concentration 0.4×10^6 test (e.g., SC, H82, K562, or C1498, as labelled) cells/mL, and 10 μM/μL drug was serially diluted into drug-free cell stock to reach concentrations of 1 μM/μL and […] and split into 100 μL volumes in a 96-well plate. MTT assays performed after 24 hour incubation. Percentages calculated as a difference in mean absorbance of each drug triplicate and mean absorbance in drug-free cell triplicate. Red bars represent standard errors. The concentration of drug represented by each column is from left to right as written in the figure keys. FIGS. 12A-12E provide results from independent repeats for different groupings of small molecules tested against C1498 cells. FIGS. 12F-12G provide results from independent repeats for different groupings of small molecules tested against H82 cells. FIGS. […] provide results from independent repeats for different groupings of small molecules tested against SC cells. FIG. 12J provide results from an assay against K562 cells.
The inventors then designed a protocol for functional screening of NSUN1/2-targeting supercomputing/AI-derived compound libraries as schematically presented in FIGS. 5A-5G. Briefly, the library compounds were obtained from various chemical companies/vendors and dissolved in DMSO, and then applied to 96-well plates that contained leukemia and/or other cancer cells that were resistant to venetoclax. […]

[6] = tested on: leukemia and lung cancer cell lines; experiment: Functional (MTT) screening of NSUN1/2-targeting libraries in leukemia and lung cancer cell lines; type: cell-based, human; details: multiple leukemia lines and/or lung cancer cell lines
Protocol: as §2, §3
The inventors then designed a protocol for functional screening of NSUN1/2-targeting supercomputing/AI-derived compound libraries as schematically presented in FIGS. 5A-5G. Briefly, the library compounds were obtained from various chemical companies/vendors and dissolved in DMSO, and then applied to 96-well plates that contained leukemia and/or other cancer cells that were resistant to venetoclax. Both the routine colorimetric assay (MTT assay) and the newly developed NSUN1/2-targeting fluorescence quenching and release (FQR) assay were performed to select bioactive compounds for further quantitative study to confirm that they targetNSUN1/2 and their associated ACS. As described below, the compound libraries screened through cancer cell proliferation and/or NSUN1/2 localization to the ACS successfully identified numerous promising compounds that can inhibit the leukemia cell growth and appear to target the NSUN1-mediated ACS (see Table 2). This success has proven the feasibility and efficacy of the described supercomputing/AI design and functional screening of the NSUN1/2-targeting drug libraries. In some aspects, screening is conducted using drug-resistant cell lines. […]

[7] = target: T1, NSUN1-eRNAPII interaction (Homo sapiens, UniProt P46087); experiment: PL-RCA-FCM, NSUN1-eRNAPII interaction; type: cell-based
T1 construct: RNAPII
From the text: (§4) FIGS. 5A-5G display a pipeline of computational design and functional screening of small-molecule compound libraries as well as exemplary characterization and validation of identified positive hit compounds and their targets. FIGS. 5A-5D display an exemplary experimental procedure, beginning with characterization of NSUN1 and/or NSUN2 putative binding modules for interaction with ACS components (FIGS. 5A-5B), a graphic displaying the design of a small molecule library and testing of the putative small molecule NSUN1/2-ACS inhibitors in cell lines (FIG. 5C), characterization of the NSUN1/2-ACS inhibitors interactions with the ACS machinery (FIG. 5D).
(§5) Black=negative control, blue=positive control, no drug=red.
(§6) The PL-RCA-CM/imaging technique utilized in the inventors previous work (Cheng, J. X. et al., Nature Communications 2018) was suitable to visualize and semi-quantify the NSUN1/2-mediated ACS in cells. […] To overcome this bottleneck, as described herein, the inventors developed NSUN1/2-targeting fluorescence quenching and release (FQR) plate assay (FIG. 6A) and PL-RCA flow cytometry (PL-RCA-FCM) technology (FIG. 6B) for screening of NSUN1/2-targeting drug libraries and quantitatively measuring NSUN1/2-mediated ACS with and without drugs in a lineage-specific and high-throughput manner. […]

NSUN1-c-MYC interaction = NSUN1-c-MYC interaction (Homo sapiens, UniProt P46087); experiment: PL-RCA-FCM, NSUN1-c-MYC interaction; type: cell-based
From the text: as §4, §5, §6

[8] = target: NSUN1-RNA:m5C interaction (Homo sapiens, UniProt P46087); experiment: PL-RCA-FCM, NSUN1-RNA:m5C interaction; type: cell-based
From the text: as §4
The PL-RCA-CM/imaging technique utilized in the inventors previous work (Cheng, J. X. et al., Nature Communications 2018) was suitable to visualize and semi-quantify the NSUN1/2-mediated ACS in cells. However, the previous technique had the disadvantage of having a low sensitivity and low throughput. To overcome this bottleneck, as described herein, the inventors developed NSUN1/2-targeting fluorescence quenching and release (FQR) plate assay (FIG. 6A) and PL-RCA flow cytometry (PL-RCA-FCM) technology (FIG. 6B) for screening of NSUN1/2-targeting drug libraries and quantitatively measuring NSUN1/2-mediated ACS with and without drugs in a lineage-specific and high-throughput manner. […]

[9] = target: T2, NSUN2-RNA polymerase II (RNAPII) interaction (Homo sapiens, UniProt Q08J23); experiment: PL-RCA-FCM, NSUN2-RNAPII interaction; type: cell-based
T2 construct: RNAPII CTD2-S2P
From the text: as §5
The PL-RCA-CM/imaging technique utilized in the inventors previous work (Cheng, J. X. et al., Nature Communications 2018) was suitable to visualize and semi-quantify the NSUN1/2-mediated ACS in cells. However, the previous technique had the disadvantage of having a low sensitivity and low throughput. To overcome this bottleneck, as described herein, the inventors developed NSUN1/2-targeting fluorescence quenching and release (FQR) plate assay (FIG. 6A) and PL-RCA flow cytometry (PL-RCA-FCM) technology (FIG. 6B) for screening of NSUN1/2-targeting drug libraries and quantitatively measuring NSUN1/2-mediated ACS with and without drugs in a lineage-specific and high-throughput manner. The new PL-RCA-FCM detected very strong PL-RCA signals (>2 logs) of the NSUN2-mediated interactions with m5C, RNAPII CTD2-S2P and BRD4, particularly in the venetoclax-resistant leukemia cells (SC) (FIG. 6C), in comparison to the venetoclax-sensitive K1 cells (FIG. 6D).

[10] = tested on: NSUN1 and NSUN2 binding modules; experiment: Synergy experiments; details: besides the NSUN1 A-460 binding module
From the text: Without being limited by theory, this may potentially be why NSUN1-17 is effective in multiple different cancer types.

H82 cells = experiment: MTT growth inhibition in venetoclax-resistant lung cancer cell line H82; type: cell-based, human; details: human lung cancer cell line NCI-H82
From the text: as §1, §2
FIGS. 12A-12J display bar graphs displaying the results of validation experiments for small molecule inhibitors of NSUN1/2-ACS interactions as identified herein. Drug validation of select SC, H82, and/or K562 inhibiting compounds in mouse acute myeloid leukemia cell Line (C1498), SC cells, H82 cells, and/or K562 cells. NSUN1-17 and/or venetoclax acted as controls. Inhibition of cell vitality was identified as dose-dependent for certain small molecules, not merely cytotoxic. In brief, stock with concentration 0.4×10^6 test (e.g., SC, H82, K562, or C1498, as labelled) cells/mL, and 10 μM/μL drug was serially diluted into drug-free cell stock to reach concentrations of 1 μM/μL and […] and split into 100 μL volumes in a 96-well plate. MTT assays performed after 24 hour incubation. Percentages calculated as a difference in mean absorbance of each drug triplicate and mean absorbance in drug-free cell triplicate. […]

C1498 cells = experiment: MTT growth inhibition in myeloid leukemia cell line C1498; type: cell-based, mouse; details: mouse AML cell line
From the text: as §1, §3
The inventors then designed a protocol for functional screening of NSUN1/2-targeting supercomputing/AI-derived compound libraries as schematically presented in FIGS. 5A-5G. Briefly, the library compounds were obtained from various chemical companies/vendors and dissolved in DMSO, and then applied to 96-well plates that contained leukemia and/or other cancer cells that were resistant to venetoclax. Both the routine colorimetric assay (MTT assay) and the newly developed NSUN1/2-targeting fluorescence quenching and release (FQR) assay were performed to select bioactive compounds for further quantitative study to confirm that they targetNSUN1/2 and their associated ACS. As described below, the compound libraries screened through cancer cell proliferation and/or NSUN1/2 localization to the ACS successfully identified numerous promising compounds that can inhibit the leukemia cell growth and appear to target the NSUN1-mediated ACS (see Table 2). This success has proven the feasibility and efficacy of the described supercomputing/AI design and functional screening of the NSUN1/2-targeting drug libraries. In some aspects, screening is conducted using drug-resistant cell lines. In some aspects, screening is conducted using drug-sensitive cell lines. In some aspects, screening is conducted in leukemia cell lines. In some aspects, screening is conducted in other cancer cell lines besides leukemia (e.g., lung cancer cell lines). In some aspects, NSUN1/2-ACS inhibitors identified are verified in additional cell lines and/or animal models (see e.g., Tables 4-6).

Kasumi-1 (K1) cells = experiment: Venetoclax sensitivity of Kasumi-1 cells; type: cell-based
CCRF-CEM cells = experiment: Venetoclax sensitivity of CCRF-CEM cells; type: cell-based
K1VR cells = experiment: Venetoclax sensitivity of K1VR cells after NSUN1/NSUN2 knockdown; type: cell-based; details: knockdown of either NSUN1 or NSUN2
MDS/AML = details: cited from earlier work

T1 sequence (P46087 whole entry): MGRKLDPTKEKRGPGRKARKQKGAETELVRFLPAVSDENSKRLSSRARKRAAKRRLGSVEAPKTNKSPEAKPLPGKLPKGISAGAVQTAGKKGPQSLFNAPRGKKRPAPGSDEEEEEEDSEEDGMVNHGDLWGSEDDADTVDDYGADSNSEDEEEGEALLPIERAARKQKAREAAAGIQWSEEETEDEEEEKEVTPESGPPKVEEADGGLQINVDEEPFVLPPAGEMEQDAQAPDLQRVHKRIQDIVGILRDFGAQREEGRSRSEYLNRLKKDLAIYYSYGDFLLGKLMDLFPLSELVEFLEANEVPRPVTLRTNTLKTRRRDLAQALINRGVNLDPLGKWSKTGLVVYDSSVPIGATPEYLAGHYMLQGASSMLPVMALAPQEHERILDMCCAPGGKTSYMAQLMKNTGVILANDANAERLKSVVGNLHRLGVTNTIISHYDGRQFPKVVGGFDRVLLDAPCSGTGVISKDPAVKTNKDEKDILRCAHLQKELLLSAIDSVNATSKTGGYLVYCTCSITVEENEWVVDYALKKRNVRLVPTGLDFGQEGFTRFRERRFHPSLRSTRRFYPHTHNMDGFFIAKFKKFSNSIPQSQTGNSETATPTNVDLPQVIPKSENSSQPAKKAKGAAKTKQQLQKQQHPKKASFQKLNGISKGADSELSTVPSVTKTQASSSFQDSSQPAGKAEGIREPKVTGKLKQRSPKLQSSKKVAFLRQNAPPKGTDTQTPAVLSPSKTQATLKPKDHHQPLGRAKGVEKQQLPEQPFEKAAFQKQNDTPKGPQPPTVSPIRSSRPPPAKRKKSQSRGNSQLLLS
Chain of NSUN1-c-MYC interaction (P46087 whole entry): as above
Chain of NSUN1-RNA:m5C interaction (P46087 whole entry): as above
T2 sequence (Q08J23 whole entry): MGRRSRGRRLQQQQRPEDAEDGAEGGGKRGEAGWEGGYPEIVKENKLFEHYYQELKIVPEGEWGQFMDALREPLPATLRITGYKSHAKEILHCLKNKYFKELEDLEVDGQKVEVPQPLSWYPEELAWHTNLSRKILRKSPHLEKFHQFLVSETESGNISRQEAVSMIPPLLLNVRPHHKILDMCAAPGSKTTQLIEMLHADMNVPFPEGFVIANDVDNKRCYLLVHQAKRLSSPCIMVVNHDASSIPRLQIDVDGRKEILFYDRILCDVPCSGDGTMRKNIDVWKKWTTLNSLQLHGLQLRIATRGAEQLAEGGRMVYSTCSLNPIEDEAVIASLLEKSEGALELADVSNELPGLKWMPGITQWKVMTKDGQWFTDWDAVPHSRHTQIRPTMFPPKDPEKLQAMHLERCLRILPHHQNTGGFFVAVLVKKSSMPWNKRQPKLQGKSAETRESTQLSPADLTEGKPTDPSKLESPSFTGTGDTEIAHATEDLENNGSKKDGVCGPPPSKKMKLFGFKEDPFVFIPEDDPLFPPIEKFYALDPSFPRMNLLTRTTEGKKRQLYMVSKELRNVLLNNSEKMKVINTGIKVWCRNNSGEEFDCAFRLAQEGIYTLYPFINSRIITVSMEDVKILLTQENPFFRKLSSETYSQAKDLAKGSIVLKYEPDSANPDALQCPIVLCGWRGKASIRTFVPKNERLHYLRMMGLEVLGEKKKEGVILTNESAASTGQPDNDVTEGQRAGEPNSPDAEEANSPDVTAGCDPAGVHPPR

Nc1ncn([C@@H]2O[C@H](CO)[C@@H](O)[C@H]2O)c(=O)n1 [5-AZA, 5-azacytidine]
Sensitivity of eRNAPII (CTD-S2P)-NSUN1 interaction [1]: resistant | Sensitivity of eRNAPII (CTD-S2P)-NSUN3 interaction [2]: highly sensitive | Sensitivity of eRNAPII (CTD-S2P)-DNMT2 interaction [3]: highly sensitive | Response of 5-AZA-resistant SCAR cells after NSUN1 knockdown (SCAR cells): re-sensitized | Sensitivity of eRNAPII (CTD-S2P)-CTD-S5P interaction [4]: resistant

Cc1sc2c(c1C)C(c1ccc(Cl)cc1)=N[C@@H](CC(=O)OC(C)(C)C)c1nnc(C)n1-2 [JQ1]
Sensitivity of BRD4-eRNAPII (CTD-S2P) interaction [5]: insensitive | Sensitivity of BRD4-NSUN1 interaction (BRD4-NSUN1 interaction): insensitive

Cc1[nH]nc2ccc(-c3cncc(OC[C@@H](N)Cc4c[nH]c5ccccc45)c3)cc12 [NSUN1-17]
Inhibition of growth of venetoclax-resistant leukemia (SC) cells (SC cells): inhibition of the growth of venetoclax-resistant SC cells; also recorded: inhibit drug (venetoclax)-resistant leukemia cells | Efficacy of tumor cell growth inhibition [6]: high-efficacy of tumor cell growth inhibition | Effect on NSUN1 interaction with eRNAPII/RNAPII [7]: inhibited the interaction; also recorded: can only disrupt the NSUN1-mediated interaction; also recorded: effectively disrupted | Effect on NSUN1 interaction with c-MYC (NSUN1-c-MYC interaction): inhibited the interaction; also recorded: can only disrupt the NSUN1-mediated interaction; also recorded: effectively disrupted | Effect on NSUN1 interaction with RNA:m5C [8]: but not the interaction between NSUN1 and RNA m5C; also recorded: little effects | Effect on NSUN2-mediated interaction with RNA polymerase II [9]: not the NSUN-2 mediated interaction | Binding modules targeted, from synergy experiments [10]: likely to target multiple binding modules in both NSUN1 and NSUN2

CC1(C)CCC(CN2CCN(c3ccc(C(=O)NS(=O)(=O)c4ccc(NCC5CCOCC5)c([N+](=O)[O-])c4)c(Oc4cnc5[nH]ccc5c4)c3)CC2)=C(c2ccc(Cl)cc2)C1 [venetoclax, Venetoclax]
Sensitivity/resistance of SC cells (SC cells; monocytic leukemia line SC): highly resistant | Sensitivity/resistance of NCI-H82 cells (H82 cells): resistant | Sensitivity/resistance of C1498 cells (C1498 cells): moderate to high resistance | Sensitivity/resistance of Kasumi-1 cells (Kasumi-1 (K1) cells): sensitive | Sensitivity/resistance of CCRF-CEM cells (CCRF-CEM cells): sensitive | Sensitivity of K1VR cells after NSUN1 or NSUN2 siRNA knockdown (K1VR cells): re-sensitize | AML patients developing venetoclax acquired resistance (MDS/AML; AML patients, venetoclax-based therapy, acquired resistance): > 60% | MDS/AML with primary venetoclax resistance (MDS/AML; MDS/AML, primary resistance): 30-40%
